According to patent US5719135A, “Substituted 3-arylidene-7-azaoxindole compounds and process for their preparation” (Pharmacia S.p.A., priority 1994, dated 1998):

Legend:
[1] = target: p45 v-abl tyrosine kinase; test: p45 v-abl Kinase Assay; assay type: biochemical, Abelson murine leukemia virus; conditions: in-vitro; (Val^5)-Angiotensin II peptide 2 mM, ATP 50 μM, pH 8.0, 30° C.
Experimental: p45 v-abl Kinase Purification
The enzyme used in our tests was the p45 v-abl tyrosine kinase which represents the catalytic domain of the Abelson tyrosine kinase (isolated form the Abelson murine leukemia virus). The p45 v-abl kinase was produced and isolated as described by Wang at al. in J. Biol. Chem. 260, 64 (1985) and by Ferguson et al. in J. Biol. Chem. 260, 3652 (1985) and in Biochem. J. 257, 321 (1989).
(Val^5)-Angiotensin II phosphorylation was performed by incubation with 40 ng of purified abl-kinase and (γ^32 -p)ATP, in 50 μl of buffer containing Tris-Hcl 25 mM, pH 8.0. MgCl2 10 mM and dithiothreitol 0.1 mM (kinase buffer). The reaction mixture was incubated for the indicated time at 30° C. and the reaction stopped by adding 50 μl of 5% trichloroacetic acid. After a brief incubation on ice, tubes were centrifuged. The supernatants were spotted on phosphocellulose paper squares (Whatman P-81) and washed extensively in acetic acid. The radioactivity bound to dried phosphocellulose squares was measured in a liquid scintillation counter. IC50 values were calculated from triplicated determinations of each experimental point. Each inhibitor was tested at concentrations ranging from […] in the presence of fixed concentrations of peptide (2 mM) and ATP (50 μM.
(§1) The inhibitory activity data for a representative group of compounds according to the present invention, obtained both in the in-vitro p45 v-abl kinase assay and in the […] human chronic myeloid leukemia K562 cell growth inhibition assay described above, are set out in the following Table I.

[2] = system: K562 cells; test: K562 Cell Growth Inhibition Assay; assay type: cell-based; conditions: human chronic myeloid leukemia K562 cells, 72 h, 10000/well
Experimental: K562 Cell Growth Inhibition Assay
K562 cells, a human myelogenous leukemia cell line, were seeded into a 24 wells tissue culture plate (Falcon 3047) (10000/well) in the presence of increasing concentrations of the compounds. After 72 h, cells were harvested and were counted using a cell counter (Coulter Counter-ZM). The percent of inhibition was evaluated in respect to the untreated control cells.
as §1

| Compound | IC50 [1] [nM] | IC50 [2] [nM] |
| --- | --- | --- |
| O=C1Nc2ncccc2C1=Cc1cc(O)c2c(c1O)CCCC2 [3-[(1,4-dihydroxy-5,6,7,8-tetrahydronaphth-2-yl)methylene]-7-azaoxindole] | 2140 | 2360 |
| Cc1[nH]c2ccccc2c1C=C1C(=O)Nc2ncccc21 [3-[(2-methyl-3-indolyl)methylene]-7-azaoxindole] | 40 | 2610 |
| COc1ccc2[nH]cc(C=C3C(=O)Nc4ncccc43)c2c1 [3-[(5-methoxy-3-indolyl)methylene]-7-azaoxindole] | 30 | 3210 |
| O=C1Nc2ncccc2C1=Cc1c[nH]c2ncccc12 [3-[(7-azaindol-3-yl)methylene]-7-azaoxindole] |  | 3890 |
